This is an account of results in publication PMC4707675 (ACS infectious diseases, 2015).

Test [1] concerns DHFR-overexpressing strain of Mtb (DHFR-oe). The class given is cell-based, Mycobacterium tuberculosis.
Test [2] shares this test system. The note with it: ref Nixon et al.[15]; cited from earlier work.

Each structure is given as a SMILES string. Like-named read-outs stand apart in the source and are kept apart here.

As to `N#Cc1ccc(Cn2ccc3c4c(N)nc(N)nc4ccc32)cc1` [PQD-1], the “MIC90 DHFR-oe” value in test [1] is listed as more than 2 µM. For `COc1cc(NCc2ccc3nc(N)nc(N)c3c2C)cc(OC)c1OC` [Trimetrexate], the “MIC90 DHFR-oe” value in test [2] is given as more than 100 µM. Regarding `CC1(C)N=C(N)N=C(N)N1OCCCOc1cc(Cl)c(Cl)cc1Cl` [WR99210], the “MIC90 DHFR-oe” value in test [1] lay within 15 to 30 µM.
